Test results from patent US11236086B2, “Substituted pyrrolopyridines as inhibitors of activin receptor-like kinase” (BLUEPRINT MEDICINES CORPORATION, priority 2017, dated 2022).

Target: T1, ALK2R206H (mutant ALK2, N-terminally tagged with GST) (Homo sapiens, UniProt Q04771, R206H)
T1 construct: purchased Carna Bioscience or ThermoFisher 09-148 or PV6232
T1 sequence (Q04771 21-509 R206H): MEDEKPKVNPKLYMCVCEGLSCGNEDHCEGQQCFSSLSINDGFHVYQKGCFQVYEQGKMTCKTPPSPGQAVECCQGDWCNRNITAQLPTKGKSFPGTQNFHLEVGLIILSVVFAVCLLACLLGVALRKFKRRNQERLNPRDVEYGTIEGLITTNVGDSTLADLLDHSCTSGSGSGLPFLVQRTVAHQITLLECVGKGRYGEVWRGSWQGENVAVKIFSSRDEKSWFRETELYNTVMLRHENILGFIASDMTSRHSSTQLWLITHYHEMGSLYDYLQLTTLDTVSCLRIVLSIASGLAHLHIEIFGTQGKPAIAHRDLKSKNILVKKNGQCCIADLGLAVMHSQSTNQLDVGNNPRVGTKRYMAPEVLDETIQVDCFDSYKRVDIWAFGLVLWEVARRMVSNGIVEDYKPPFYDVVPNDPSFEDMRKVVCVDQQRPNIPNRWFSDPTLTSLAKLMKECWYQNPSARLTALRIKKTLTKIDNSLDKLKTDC
Assay: ALK binding assay (LANTHASCREEN TR-FRET competitive binding, displacement of Kinase Tracer 178)
Conditions: read-out: Binding Assay (IC50 class)
Summary of the method: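 Competitive displacement of Kinase Tracer 178 (50 nM) from N-terminally GST-tagged mutant ALK2 R206H (2-5 nM) by compound, detected by TR-FRET with Eu-anti-GST antibody (4-10 nM). 30 min room temperature incubation, 1% DMSO final; normalized signal fitted to 4-parameter log dose response for IC50.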

Compound	IC50 [nM]
CCOC(=O)N1CCN(c2ccnc3[nH]c(-c4cnn(C)c4)c(C)c23)CC1 [Compound 38]	≤ 10
Cn1cc(-c2cc3c(N4CCN(C(=O)O[C@H]5CCC5(F)F)CC4)ccnc3[nH]2)cn1 [Compound 268]	≤ 10
O=C(OC1COC1)N1CCN(c2ccnc3[nH]c(-c4cn(C5CCOCC5)cn4)cc23)CC1 [Compound 403]	≤ 10
C[Si](C)(O)c1ccc(-c2cc3c(N4CCN(C(=O)C5CC5)CC4)ccnc3[nH]2)cc1 [Compound 287]	≤ 10
N#Cc1c(-c2cnn(C(F)F)c2)[nH]c2nccc(N3CCN(C(=O)OC4COC4)CC3)c12 [Compound 376]	≤ 10
CCc1nc(-c2cc3c(N4CCN(C(=O)OC5COC5)CC4)ccnc3[nH]2)cs1 [Compound 248]	≤ 10
O=C(C1CC1)N1CCN(c2ccnc3[nH]c(-c4ccc(C5CCNCC5(F)F)cc4)cc23)CC1 (stereo not drawn) [Compound 431]	≤ 10
C[C@@H](CF)OC(=O)N1CCN(c2ccnc3[nH]c(-c4cnn(C)c4)cc23)CC1 [Compound 117]	≤ 10
CCOC(=O)N1CCN(c2ccnc3[nH]c(-c4cnn(C)c4)c(C#N)c23)CC1 [Compound 68]	≤ 10
CCn1cnc(-c2cc3c(N4CCN(C(=O)OC5COC5)CC4)ccnc3[nH]2)c1 [Compound 146]	≤ 10
CCOC(=O)N1CCN(c2ccnc3[nH]c(-c4cnn(C)c4)cc23)CC1 [Compound 11]	≤ 10
Cn1cc(-c2[nH]c3nccc(N4CCN(C(=O)O[C@H]5C[C@H](F)C5)CC4)c3c2Cl)cn1 [Compound 340]	≤ 10
Cn1cnc(-c2cc3c(N4CCN(C(=O)OCC(F)F)CC4)ccnc3[nH]2)c1 [Compound 124]	≤ 10
O=C(C1CC1)N1CCN(c2ccnc3[nH]c(-c4ccc(N5CCN(CC(F)F)CC5)cc4)cc23)CC1 [Compound 461]	≤ 10
N#Cc1cnc(-c2cc3c(N4CCN(C(=O)OC5COC5)CC4)ccnc3[nH]2)nc1 [Compound 198]	≤ 10
Cc1c(-c2cc3c(N4CCN(C(=O)OC5COC5)CC4)ccnc3[nH]2)cnn1C(C)C [Compound 305]	≤ 10

Other lines, results leading:

IC50 [nM]	Compound
≤ 10	CCCOC(=O)N1CCN(c2ccnc3[nH]c(-c4cnn(C)c4)c(C#N)c23)CC1 [Compound 136]
≤ 10	N#Cc1ccc(-c2cc3c(N4CCN(C(=O)OC5COC5)CC4)ccnc3[nH]2)cc1 [Compound 188]
≤ 10	COC1CC(OC(=O)N2CCN(c3ccnc4[nH]c(-c5cnn(C)c5)cc34)CC2)C1 (stereo not drawn) [Compound 233]
≤ 10	Cn1cc(-c2cc3c(N4CCN(C(=O)CC5CC5)CC4)ccnc3[nH]2)cn1 [Compound 21]
≤ 10	Cn1cc(-c2cc3c(N4CCN(C(=O)O[C@H]5C[C@@H](O)C5)CC4)ccnc3[nH]2)cn1 [Compound 149]
≤ 10	COc1ccc(-c2cc3c(N4CCN(C(=O)[C@H]5CC[C@H](O)CC5)CC4)ccnc3[nH]2)cc1 [Compound 349]
≤ 10	O=C(OC1COC1)N1CCN(c2ccnc3[nH]c(-c4csc(N5CCC(O)CC5)n4)cc23)CC1 [Compound 450]
≤ 10	CCOC(=O)N1CCN(c2ccnc3[nH]c(-c4csc(C#N)c4)cc23)CC1 [Compound 86]
≤ 10	CCN1CC[C@H](c2ccc(-c3cc4c(N5CCN(C(=O)C6CC6)CC5)ccnc4[nH]3)cc2)C(F)(F)C1 [Compound 459]
≤ 10	Cc1nc(-c2[nH]c3nccc(N4CCN(C(=O)OCC(F)F)CC4)c3c2C#N)cs1 [Compound 337]
≤ 10	O=C(OC1COC1)N1CCN(c2ccnc3[nH]c(-c4ccc(C5(O)CCOCC5)cn4)cc23)CC1 [Compound 446]

Target: T2, human ALK2 R206H (Homo sapiens, UniProt Q04771, R206H)
T2 construct: expressed in transfected cells; host or cells: HEK293 (ATCC CRL1573), lentivirus transduction, blasticidin selection
T2 sequence (Q04771 21-509 R206H): T1 sequence (Q04771 21-509 R206H)
Assay: Cell-based ALK2-R206H cell activity assay (Smad1-Ser463/Ser465 phosphorylation by AlphaLISA in HEK293-ALK2-R206H cells)
Conditions: phospho-Smad1 AlphaLISA, read-out: Cell Line (Cell Assay, IC50 class)
Summary of the method: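 IC50 comes from a 10-point curve, scaled between DMSO and 1 μM LDN193189 controls, of lysate phospho-Smad1 (Ser463/465) measured by AlphaLISA. Compounds (top 10 μM or 1 μM, 3-fold steps, duplicates) were given 2-3 h to serum-starved HEK293 cells that stably express FLAG-tagged human ALK2 R206H.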

Compound	IC50 [nM]
CCOC(=O)N1CCN(c2ccnc3[nH]c(-c4cnn(C)c4)c(C)c23)CC1 [Compound 38]	≤ 100
Cn1cc(-c2cc3c(N4CCN(C(=O)O[C@H]5CCC5(F)F)CC4)ccnc3[nH]2)cn1 [Compound 268]	≤ 100
O=C(OC1COC1)N1CCN(c2ccnc3[nH]c(-c4cn(C5CCOCC5)cn4)cc23)CC1 [Compound 403]	≤ 100
C[Si](C)(O)c1ccc(-c2cc3c(N4CCN(C(=O)C5CC5)CC4)ccnc3[nH]2)cc1 [Compound 287]	100 to 500
N#Cc1c(-c2cnn(C(F)F)c2)[nH]c2nccc(N3CCN(C(=O)OC4COC4)CC3)c12 [Compound 376]	≤ 100
CCc1nc(-c2cc3c(N4CCN(C(=O)OC5COC5)CC4)ccnc3[nH]2)cs1 [Compound 248]	≤ 100
O=C(C1CC1)N1CCN(c2ccnc3[nH]c(-c4ccc(C5CCNCC5(F)F)cc4)cc23)CC1 (stereo not drawn) [Compound 431]	≤ 100
C[C@@H](CF)OC(=O)N1CCN(c2ccnc3[nH]c(-c4cnn(C)c4)cc23)CC1 [Compound 117]	≤ 100
CCOC(=O)N1CCN(c2ccnc3[nH]c(-c4cnn(C)c4)c(C#N)c23)CC1 [Compound 68]	≤ 100
CCn1cnc(-c2cc3c(N4CCN(C(=O)OC5COC5)CC4)ccnc3[nH]2)c1 [Compound 146]	≤ 100
CCOC(=O)N1CCN(c2ccnc3[nH]c(-c4cnn(C)c4)cc23)CC1 [Compound 11]	100 to 500
Cn1cc(-c2[nH]c3nccc(N4CCN(C(=O)O[C@H]5C[C@H](F)C5)CC4)c3c2Cl)cn1 [Compound 340]	≤ 100
Cn1cnc(-c2cc3c(N4CCN(C(=O)OCC(F)F)CC4)ccnc3[nH]2)c1 [Compound 124]	≤ 100
O=C(C1CC1)N1CCN(c2ccnc3[nH]c(-c4ccc(N5CCN(CC(F)F)CC5)cc4)cc23)CC1 [Compound 461]	100 to 500
N#Cc1cnc(-c2cc3c(N4CCN(C(=O)OC5COC5)CC4)ccnc3[nH]2)nc1 [Compound 198]	100 to 500
Cc1c(-c2cc3c(N4CCN(C(=O)OC5COC5)CC4)ccnc3[nH]2)cnn1C(C)C [Compound 305]	100 to 500

The next lines start with the values.

IC50 [nM]	Compound
≤ 100	CCCOC(=O)N1CCN(c2ccnc3[nH]c(-c4cnn(C)c4)c(C#N)c23)CC1 [Compound 136]
≤ 100	N#Cc1ccc(-c2cc3c(N4CCN(C(=O)OC5COC5)CC4)ccnc3[nH]2)cc1 [Compound 188]
100 to 500	COC1CC(OC(=O)N2CCN(c3ccnc4[nH]c(-c5cnn(C)c5)cc34)CC2)C1 (stereo not drawn) [Compound 233]
100 to 500	Cn1cc(-c2cc3c(N4CCN(C(=O)CC5CC5)CC4)ccnc3[nH]2)cn1 [Compound 21]
100 to 500	Cn1cc(-c2cc3c(N4CCN(C(=O)O[C@H]5C[C@@H](O)C5)CC4)ccnc3[nH]2)cn1 [Compound 149]
≤ 100	COc1ccc(-c2cc3c(N4CCN(C(=O)[C@H]5CC[C@H](O)CC5)CC4)ccnc3[nH]2)cc1 [Compound 349]
100 to 500	O=C(OC1COC1)N1CCN(c2ccnc3[nH]c(-c4csc(N5CCC(O)CC5)n4)cc23)CC1 [Compound 450]
≤ 100	CCOC(=O)N1CCN(c2ccnc3[nH]c(-c4csc(C#N)c4)cc23)CC1 [Compound 86]
≤ 100	CCN1CC[C@H](c2ccc(-c3cc4c(N5CCN(C(=O)C6CC6)CC5)ccnc4[nH]3)cc2)C(F)(F)C1 [Compound 459]
≤ 100	Cc1nc(-c2[nH]c3nccc(N4CCN(C(=O)OCC(F)F)CC4)c3c2C#N)cs1 [Compound 337]
≤ 100	O=C(OC1COC1)N1CCN(c2ccnc3[nH]c(-c4ccc(C5(O)CCOCC5)cn4)cc23)CC1 [Compound 446]
